Holding throughout (type): functional, organism-based
For test [1], the system named is Phalaris canariensis. The test is described as follows: Stimulation of radicle growth in Phalaris canariensis at 50 ug/ml.
Test [2] deals with Phalaris canariensis. The test can be described thus: Phytotoxicity against Phalaris canariensis assessed as inhibition of radicle growth at 50 ug/ml.
Test [3] concerns Lactuca sativa. The test is described as follows: Phytotoxicity against Lactuca sativa assessed as inhibition of emergence rate index at 50 ug/ml.
In test [4] the test system is Lactuca sativa. The test is described as follows: Phytotoxicity against Lactuca sativa assessed as inhibition of radicle growth at 50 ug/ml.
In test [5] the test system is Lactuca sativa. The test can be described thus: Phytotoxicity against Lactuca sativa assessed as inhibition of germination at 50 ug/ml.

Each structure is given as a SMILES string. Calls of active or inactive are those of the source. The calls are words filed in the database; no cut-off is given here.

In the case of `CC1=C(C)C(=O)O[C@]2(C1)O[C@@]1(O)C[C@H]3[C@@H](C[C@@H](O)C4=CC=CC(=O)[C@@]43C)[C@@H]3CC[C@@](O)([C@@H]2C)[C@]31C`, in the test with Phalaris canariensis [1], the result was Active.
In the case of `CC1=C(C)C(=O)O[C@]2(C1)O[C@@]1(O)C[C@H]3[C@@H](C[C@@H](O)[C@@]4(Cl)CC=CC(=O)[C@]34C)[C@@H]3CC[C@@](O)([C@@H]2C)[C@]31C`, the outcome in the test on Phalaris canariensis [2] was Active.
As for `CC1=C(C)[C@H]2C(=O)[C@@H](C)[C@]3(O)CC[C@H]4[C@@H]5C[C@@H](O)[C@@]6(O)CC=CC(=O)[C@]6(C)[C@H]5C[C@@]2(OC1=O)[C@@]43C`, the result with Phalaris canariensis [1] was Active.
Consider `CC1=C(C)C(=O)O[C@]2(C1)O[C@@]1(O)C[C@H]3[C@@H](C[C@H](Cl)[C@]4(O)CC=CC(=O)[C@]34C)[C@@H]3CC[C@@](O)([C@@H]2C)[C@]31C`, for which the outcome with Lactuca sativa [3], in the test with Lactuca sativa [4] and in the test with Lactuca sativa [5] was Active.
